Source: patent publication US7342014B2, “Diamine derivatives” (Daiichi Pharmaceutical Co., Ltd., priority 2001, dated 2008)
Where a name gives a salt, the structure may show the parent alone.

Target: T1, human FXa (Homo sapiens, UniProt P00742)
T1 construct: purchased Enzyme Research Labolatories, Inc
T1 sequence (P00742 235-488 limits assumed): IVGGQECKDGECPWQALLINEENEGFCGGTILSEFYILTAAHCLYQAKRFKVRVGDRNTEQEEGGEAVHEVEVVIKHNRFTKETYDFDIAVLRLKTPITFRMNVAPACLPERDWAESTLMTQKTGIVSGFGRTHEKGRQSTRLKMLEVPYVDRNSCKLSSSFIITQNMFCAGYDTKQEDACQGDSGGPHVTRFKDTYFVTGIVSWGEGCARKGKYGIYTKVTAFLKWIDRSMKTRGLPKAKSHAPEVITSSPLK
T1 sequence (P00742 41-179 partner limits assumed): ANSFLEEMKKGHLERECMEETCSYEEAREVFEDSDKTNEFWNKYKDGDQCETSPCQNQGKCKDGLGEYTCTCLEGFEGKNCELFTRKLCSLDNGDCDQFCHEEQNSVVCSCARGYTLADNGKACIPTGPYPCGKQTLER
Test: Determination of human FXa-inhibiting effect (IC50 value)
Format: biochemical
Conditions: not given
Text: Determination of Human FXa-inhibiting Effect (IC50 Value)
As a control, Tris buffer was used in place of the test compound.
In the case of `CN1CCc2nc(C(=O)N[C@H]3CCC[C@@H]3NC(=O)c3cc4cc(Cl)ccc4[nH]3)sc2C1` (relative stereo) [Example 3, N-((1R*,2R*)-2-{[(5-Chloroindol-2-yl)carbonyl]amino}-cyclopentyl)-5-methyl-4,5,6,7-tetrahydrothiazolo[5,4-c]-pyridine-2-carboxamide hydrochloride], the IC50 is reported as 0.086 µM.

Same assay, conditions: human FXa, substrate S-2222, absorbance at 405 nm, room temperature; read-out: Human FXa-inhibiting effect (IC50)
Compound `CN1CCc2nc(C(=O)N[C@@H]3CCCC[C@@H]3NC(=O)c3ccc4cc(Cl)ccc4c3)sc2C1` (relative stereo) [Example 7, N-{(1R*,2S*)-2-[(6-Chloronaphthoyl)amino]cyclohexyl}-5-methyl-4,5,6,7-tetrahydrothiazolo[5,4-c]pyridine-2-carboxamide hydrochloride] has an IC50 of 0.083 µM.
`CN1CCc2nc(C(=O)N[C@@H]3CCCC[C@@H]3NC(=O)c3cc4cc(Br)ccc4[nH]3)sc2C1` (relative stereo) [Example 11, N-((1R*,2S*)-2-{[(5-Bromoindol-2-yl)carbonyl]amino}-cyclohexyl)-5-methyl-4,5,6,7-tetrahydrothiazolo[5,4-c]-pyridine-2-carboxamide hydrochloride] gave an IC50 of 0.092 µM.

Test system: not given
Test: not given
Conditions: not given
With `CN1CCc2nc(C(=O)N[C@@H]3CN(C(=O)C(F)(F)F)CC[C@@H]3NC(=O)c3cc4cc(Cl)ccc4[nH]3)sc2C1` (relative stereo) (as salt: hydrochloride) [Example 137, N-[(3R*,4S*)-4-{[(5-Chloroindol-2-yl)carbonyl]amino}-1-(2,2,2-trifluoroacetyl)piperidin-3-yl]-5-methyl-4,5,6,7-tetrahydrothiazolo[5,4-c]pyridine-2-carboxamide hydrochloride] the melting point was 262 to 267 °C (dec.).
In the case of `CN1CCc2nc(C(=O)N[C@@H]3CN(C(=O)C4CC4)CC[C@@H]3NC(=O)c3cc4cc(Cl)ccc4[nH]3)sc2C1` (relative stereo) (as salt: hydrochloride) [Example 138, N-[(3R*,4S*)-4-{[(5-Chloroindol-2-yl)carbonyl]amino}-1-(cyclopropylcarbonyl)piperidin-3-yl]-5-methyl-4,5,6,7-tetrahydrothiazolo[5,4-c]pyridine-2-carboxamide hydrochloride], the melting point is reported as 280 to 286 °C (dec.).
For `COCC(=O)N1CC[C@H](NC(=O)c2cc3cc(Cl)ccc3[nH]2)[C@H](NC(=O)c2nc3c(s2)CN(C)CC3)C1` (relative stereo) (as salt: hydrochloride) [Example 143, N-[(3R*,4S*)-4-{[(5-Chloroindol-2-yl)carbonyl]amino}-1-(2-methoxyacetyl)piperidin-3-yl]-5-methyl-4,5,6,7-tetrahydro-thiazolo[5,4-c]pyridine-2-carboxamide hydrochloride], the melting point was 214 to 228 °C (dec.).
With `COCC(COC)C(=O)N1CC[C@H](NC(=O)c2cc3cc(Cl)ccc3[nH]2)[C@H](NC(=O)c2nc3c(s2)CN(C)CC3)C1` (relative stereo) (as salt: hydrochloride) [Example 152, N-{(3R*,4S*)-4-{[(5-Chloroindol-2-yl)carbonyl]amino}-1-[3-methoxy-2-(methoxymethyl)propanoyl]piperidin-3-yl]-5-methyl-4,5,6,7-tetrahydrothiazolo[5,4-c]pyridine-2-carboxamide hydrochloride] the melting point was 178 to 184 °C (dec.).
In the case of `CN1CCc2nc(C(=O)N[C@@H]3CN(C(=O)c4ccccc4)CC[C@@H]3NC(=O)c3cc4cc(Cl)ccc4[nH]3)sc2C1` (relative stereo) (as salt: hydrochloride) [Example 154, N-((3R*,4S*)-1-benzoyl-4-{[(5-Chloroindol-2-yl)carbonyl]amino}piperidin-3-yl]-5-methyl-4,5,6,7-tetrahydrothiazolo[5,4-c]pyridine-2-carboxamide hydrochloride], the melting point is reported as 215 to 225 °C (dec.).
In the case of `CN1CCc2nc(C(=O)N[C@@H]3CN(CCF)CC[C@@H]3NC(=O)c3cc4cc(Cl)ccc4[nH]3)sc2C1` (relative stereo) (as salt: hydrochloride) [Example 168, N-[(3R*,4S*)-4-{[(5-Chloroindol-2-yl)carbonyl]amino}-1-(2-fluoroethyl)piperidin-3-yl]-5-methyl-4,5,6,7-tetrahydro-thiazolo[5,4-c]pyridine-2-carboxamide dihydrochloride], the melting point is reported as 228 to 233 °C (dec.).
In the case of `CN1CCc2nc(C(=O)N[C@@H]3CS(=O)(=O)CC[C@@H]3NC(=O)c3cc4cc(Cl)ccc4[nH]3)sc2C1` (relative stereo) (as salt: hydrochloride) [Example 178, N-((3R*,4R*)-4-{[(5-Chloroindol-2-yl)carbonyl]amino}-1,1-dioxohexahydro-1-thiopyran-3-yl)-5-methyl-4,5,6,7-tetrahydrothiazolo[5,4-c]pyridine-2-carboxamide hydrochloride], the melting point is reported as 241 to 244 °C.
`CN1CCc2nc(C(=O)N[C@@H]3CS(=O)(=O)CC[C@@H]3NC(=O)c3cc4cc(F)ccc4[nH]3)sc2C1` (relative stereo) (as salt: hydrochloride) [Example 179, N-((3R*,4R*)-4-{[(5-Fluoroindol-2-yl)carbonyl]amino}-1,1-dioxohexahydro-1-thiopyran-3-yl)-5-methyl-4,5,6,7-tetrahydrothiazolo[5,4-c]pyridine-2-carboxamide hydrochloride] gave a melting point of 243 to 245 °C.
In the case of `CN1CCc2nc(C(=O)N[C@@H]3CCS(=O)(=O)C[C@@H]3NC(=O)c3cc4cc(Cl)ccc4[nH]3)sc2C1` (relative stereo) (as salt: hydrochloride) [Example 180, N-((3R*,4R*)-3-{[(5-Chloroindol-2-yl)carbonyl]amino}-1,1-dioxohexahydro-1-thiopyran-4-yl)-5-methyl-4,5,6,7-tetrahydrothiazolo[5,4-c]pyridine-2-carboxamide hydrochloride], the melting point is reported as 242 to 247 °C.
`CN1CCc2nc(C(=O)N[C@@H]3CS(=O)(=O)CC[C@H]3NC(=O)c3cc4cc(Cl)ccc4[nH]3)sc2C1` (relative stereo) (as salt: hydrochloride) [Example 181, N-((3R*,4S*)-4-{[(5-Chloroindol-2-yl)carbonyl]amino}-1,1-dioxohexahydro-1-thiopyran-3-yl)-5-methyl-4,5,6,7-tetrahydrothiazolo[5,4-c]pyridine-2-carboxamide hydrochloride] showed a melting point of 244 to 249 °C.
`CN1CCc2nc(C(=O)N[C@@H]3CS(=O)(=O)CC[C@H]3NC(=O)c3cc4cc(F)ccc4[nH]3)sc2C1` (relative stereo) (as salt: hydrochloride) [Example 182, N-((3R*,4S*)-4-{[(5-Fluoroindol-2-yl)carbonyl]amino}-1,1-dioxohexahydro-1-thiopyran-3-yl)-5-methyl-4,5,6,7-tetrahydrothiazolo[5,4-c]pyridine-2-carboxamide hydrochloride] gave a melting point of 236 to 241 °C.
Compound `CN1CCc2nc(C(=O)N[C@@H]3CCS(=O)(=O)C[C@@H]3NC(=O)c3cc4cc(F)ccc4[nH]3)sc2C1` (relative stereo) (as salt: hydrochloride) [Example 183, N-((3R*,4R*)-3-{[(5-Fluoroindol-2-yl)carbonyl]amino}-1,1-dioxohexahydro-1-thiopyran-4-yl)-5-methyl-4,5,6,7-tetrahydrothiazolo[5,4-c]pyridine-2-carboxamide hydrochloride] has a melting point of 244 to 249 °C.
With `CN1CCc2nc(C(=O)N[C@@H]3CCN(C(=O)OC(C)(C)C)C[C@@H]3NC(=O)c3cc4cc(Cl)ccc4[nH]3)sc2C1` (relative stereo) [Example 119, tert-Butyl (3R*,4S*)-3-{[(5-chloroindol-2-yl)carbonyl]-amino}-4-{[(5-methyl-4,5,6,7-tetrahydrothiazolo[5,4-c]-pyridin-2-yl)carbonyl]amino}piperidine-1-carboxylate] the melting point was 187 to 189 °C (dec.).
In the case of `CN1CCc2nc(C(=O)N[C@@H]3CN(C(=O)C(C)(C)CO)CC[C@@H]3NC(=O)c3cc4cc(Cl)ccc4[nH]3)sc2C1` (relative stereo) [Example 146, N-[(3R*,4S*)-4-{[(5-chloroindol-2-yl)carbonyl]amino}-1-(3-hydroxy-2,2-dimethylpropanoyl)piperidin-3-yl)-5-methyl-4,5,6,7-tetrahydrothiazolo[5,4-c]pyridine-2-carboxamide], the melting point is reported as 220 °C (dec.).
With `COCC(C)(C)C(=O)N1CC[C@H](NC(=O)c2cc3cc(Cl)ccc3[nH]2)[C@H](NC(=O)c2nc3c(s2)CN(C)CC3)C1` (relative stereo) [Example 147, N-[(3R*,4S*)-4-{[(5-chloroindol-2-yl)carbonyl]amino}-1-(3-methoxy-2,2-dimethylpropanoyl)piperidin-3-yl)-5-methyl-4,5,6,7-tetrahydrothiazolo[5,4-c]pyridine-2-carboxamide] the melting point was 240 °C (dec.).
For `CC(=O)OC(C)(C)C(=O)N1CC[C@H](NC(=O)c2cc3cc(Cl)ccc3[nH]2)[C@H](NC(=O)c2nc3c(s2)CN(C)CC3)C1` (relative stereo) [Example 148, 2-((3R*,4S*)-4-{[(5-Chloroindol-2-yl)carbonyl]amino}-3-{[(5-methyl-4,5,6,7-tetrahydrothiazolo[5,4-c]pyridin-2-yl)carbonyl]amino}piperidin-1-yl)-1,1-dimethyl-2-oxoethyl acetate], the melting point was 190 °C (dec.).
In the case of `CN1CCc2nc(C(=O)N[C@@H]3CN(C(=O)C(C)(C)O)CC[C@@H]3NC(=O)c3cc4cc(Cl)ccc4[nH]3)sc2C1` (relative stereo) [Example 149, N-[(3R*,4S*)-4-{[(5-Chloroindol-2-yl)carbonyl]amino}-1-(2-hydroxy-2-methylpropanoyl)piperidin-3-yl]-5-methyl-4,5,6,7-tetrahydrothiazolo[5,4-c]pyridine-2-carboxamide], the melting point is reported as 190 °C (dec.).
With `CN1CCc2nc(C(=O)N[C@@H]3CN(C(=O)OC(C)(C)C)C[C@H]3NC(=O)c3cc4cc(Cl)ccc4[nH]3)sc2C1` [Example 94, tert-Butyl (3R,4R)-3-{[(5-chloroindol-2-yl)carbonyl]-amino}-4-{[(5-methyl-4,5,6,7-tetrahydrothiazolo[5,4-c]-pyridin-2-yl)carbonyl]amino}pyrrolidine-1-carboxylate] the melting point was 190 to 192 °C.
